Measured values reported in US9006487B2, “Amine-containing lipids and uses thereof” (Massachusetts Institute of Technology, priority 2005, dated 2015).
“And” between values parts separate entries of the source, which are not always exact repeats. Equal entries are not always repeated.

Columns and labels:
Format in all cases: cell-based
[1] = tested on: renilla and firefly luciferases; test: siRNA delivery: reporter-protein (renilla luciferase) knockdown relative to Lipofectamine 2000, firefly luciferase as viability control; settings: 50 ng of siRNA per well
Description: Reporter-protein knockdown achieved by the top transfecting lipids relative to Lipofectamine™ 2000 (where negative values indicate improved knockdown). The assay accounts for toxicity, monitoring expression of both renilla and firefly luciferases, where the latter serves as viability control. For each lipid, 50 ng of siRNA was added per well at specific lipid/RNA w/w ratios (from top to bottom: 2.5, 5, 10, 15).

[2] = DNA delivery: raw luciferase expression (relative light units) of best-transfecting lipids; settings: 300 ng of DNA per well
Description: Raw values for luciferase expression (relative lights units) of best-transfecting lipids at lipid/DNA (w/w) ratios listed. 300 ng of DNA was added per well.

cos-7 cells = test: DNA transfection: luciferase expression relative to Lipofectamine 2000; settings: for luciferase expression (second part of table, values relative to LIPO2000): 300 ng of DNA per well
Outline: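 cos-7 cells were transfected with 300 ng/well luciferase DNA complexed with lipid at ratios from 2.5 to 25 w/w. Bright-Glo luminescence was read after 48 hours and converted to ng luciferase by standard curve. Data are percent of the Lipofectamine 2000 control (2.5 w/w).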

[3] = 1st column, no head printed (2.5 w/w by the raw values)
[4] = 2nd column, no head printed (5 w/w by the raw values)
[5] = 3rd column, no head printed (10 w/w by the raw values)
[6] = 4th column, no head printed (15 w/w by the raw values)

Row | Structure (SMILES) | Reporter-protein knockdown relative to Lipofectamine 2000 (negative values indicate improved knockdown) ([1]; lipid/RNA 2.5 w/w) | Reporter-protein knockdown relative to Lipofectamine 2000 (negative values indicate improved knockdown) ([1]; lipid/RNA 5 w/w) | Reporter-protein knockdown relative to Lipofectamine 2000 (negative values indicate improved knockdown) ([1]; lipid/RNA 10 w/w) | Reporter-protein knockdown relative to Lipofectamine 2000 (negative values indicate improved knockdown) ([1]; lipid/RNA 15 w/w) | Raw values for luciferase expression ([2]; lipid/DNA 2.5 w/w) | Raw values for luciferase expression ([2]; lipid/DNA 5 w/w) | luciferase expression (second part of table, values relative to LIPO2000) (cos-7 cells; lipid/DNA 2.5 w/w) | luciferase expression (second part of table, values relative to LIPO2000) (cos-7 cells; lipid/DNA 5 w/w) | luciferase expression (second part of table, values relative to LIPO2000) (cos-7 cells; lipid/DNA 10 w/w) | luciferase expression (second part of table, values relative to LIPO2000) (cos-7 cells; lipid/DNA 15 w/w) | luciferase expression, second set of columns (replicate set of data) (cos-7 cells; [3]) | luciferase expression, second set of columns (replicate set of data) (cos-7 cells; [4]) | luciferase expression, second set of columns (replicate set of data) (cos-7 cells; [5]) | luciferase expression, second set of columns (replicate set of data) (cos-7 cells; [6]) | Raw values for luciferase expression ([2]; lipid/DNA 10 w/w) [relative lights units] | Raw values for luciferase expression ([2]; lipid/DNA 15 w/w) [relative lights units]
1 | CCCCCCCCCCCCNC(=O)CCN(CCC(=O)NCCCCCCCCCCCC)CCN(CCC(=O)NCCCCCCCCCCCC)CCC(=O)NCCCCCCCCCCCC [ND99] | −10.1961 | −9.86 | −18.2728 | −20.0273 | 10252260 relative lights units and 11757295 relative lights units | 9886021 relative lights units and 7656193 relative lights units | 16.8 | 36.5 | 78.6 | 91.7 | 132.7 | 97.5 | 6.8 | 2.2 | – | –
2 | CCCCCCCCCCCCCCNC(=O)CCN(C)CCCN(CCC(=O)NCCCCCCCCCCCCCC)CCC(=O)NCCCCCCCCCCCCCC [NF96] | −6.262 | −2.035 | 63.2 | 90.8142 | – | – | 221.5 | 44.3 | 0.2 | 0.1 | 79.4 | 40.8 | 29.2 | 2.4 | 2048655 | 167043
